# Data taken from patent US12440542B1, “Kits for preparing and delivering purified corticotropin” (ANI Pharmaceuticals, Inc., priority 2022, dated 2025).
# Tested on: THP-1 Blue, Raw Blue, HEK-blue hTLR3, HEK-Blue hTLR4, HEK-Blue hNOD2
# Test: Activation of innate immune response in reporter cell lines covering TLR and NOD2 expression
# Format: cell-based
# Conditions: 5 cell lines; 3 PPQ lots; highest drug substance concentration tested 10 μg/mL
# Procedure: Method development, qualification, and testing for activation of innate immune response was performed. The innate immune assays performed compared 3 PPQ lots. The work was conducted using 5 cell lines to cover TLR and NOD2 expression (THP-1 Blue, Raw Blue, HEK-blue hTLR3, HEK-Blue hTLR4, HEK-Blue hNOD2). […] The highest drug substance concentration tested was 10 μg/mL. A dose of the sterile preparation of purified corticotropin at 80 U is, equivalent to approximately 1 mg of drug substance per total body weight of subject.
row,Compound,dose response in innate immune assays
1,CCCc1nc2c(N)nc3ccccc3c2s1 [CL075],robust dose responses
2,CC(=O)N[C@@H]1[C@@H](O[C@H](C)C(=O)N[C@@H](C)C(=O)N[C@H](CCC(=O)O)C(N)=O)[C@H](O)[C@@H](CO)O[C@H]1O [MDP],robust dose responses
3,FSL-1,robust dose responses
